Converted amounts (≈) assume the structure as drawn.
Experiments:
Staphylococcus aureus = assay: Antibacterial activity against Staphylococcus aureus assessed as inhibition of bacterial growth; format: functional
[1] = Toxicity in renal cells (unknown origin) assessed as cell viability at 64 ug/ml relative to control; format: cell-based; details: at 64 µg/mL, read-out: Activity

Compound	MIC (Staphylococcus aureus)	viability at 64 ug/ml [1]
Cc1ccc(Cn2c(C(=O)O)c(Oc3ccc(I)cc3)c3cc(Cl)ccc32)cc1	8 µg/mL (≈ 15.5 µM)	15%
O=C(O)CCNC(=O)c1c(Oc2ccccc2)c2cc(Cl)ccc2n1Cc1ccc(Cl)cc1	4 µg/mL (≈ 8.28 µM)	20%
O=C(O)c1c(Oc2ccc(I)cc2)c2cc(Cl)ccc2n1Cc1ccc(Cl)cc1	1 µg/mL (≈ 1.86 µM)	15%
CN[C@H](CC(C)C)C(=O)N[C@H]1C(=O)N[C@@H](CC(N)=O)C(=O)N[C@H]2C(=O)N[C@H]3C(=O)N[C@H](C(=O)N[C@H](C(=O)O)c4cc(O)cc(O)c4-c4cc3ccc4O)[C@H](O)c3ccc(c(Cl)c3)Oc3cc2cc(c3O[C@@H]2O[C@H](CO)[C@@H](O)[C@H](O)[C@H]2O[C@H]2C[C@](C)(N)[C@H](O)[C@H](C)O2)Oc2ccc(cc2Cl)[C@H]1O [VANCOMYCIN]		65%
O=C(O)c1c(Oc2cccc(I)c2)c2cc(Cl)ccc2n1Cc1ccc(Cl)cc1	1 µg/mL (≈ 1.86 µM)	10%
O=C(O)c1c(Oc2cccc(I)c2)c2cc(Cl)ccc2n1Cc1ccc(Br)cc1	8 µg/mL (≈ 13.7 µM)	15%
O=C(O)CCNC(=O)c1c(Oc2ccc(I)cc2)c2cc(Cl)ccc2n1Cc1ccc(Cl)cc1	32 µg/mL (≈ 52.5 µM)	15%
Clc1ccc(Cn2c(-c3nnn[nH]3)c(Oc3ccccc3)c3cc(Cl)ccc32)cc1	8 µg/mL (≈ 18.3 µM)	20%
O=C(O)c1c(Oc2ccc(I)cc2)c2cc(Cl)ccc2n1-c1ccc(Cl)cc1	16 µg/mL (≈ 30.5 µM)	20%
O=C(O)c1c(Oc2ccc(I)cc2)c2cc(Cl)ccc2n1Cc1ccc(Br)cc1	2 µg/mL (≈ 3.43 µM)	15%
CC(C)(C)c1ccc(Cn2c(C(=O)O)c(Oc3ccc(I)cc3)c3cc(Cl)ccc32)cc1	1 µg/mL (≈ 1.79 µM)	10%
Clc1ccc(Cn2c(-c3nnn[nH]3)c(Oc3ccc(I)cc3)c3cc(Cl)ccc32)cc1	> 64 µg/mL	25%
O=C(O)c1c(Oc2ccc(I)cc2)c2cc(Cl)ccc2n1Cc1ccc(Cl)c(Cl)c1	4 µg/mL (≈ 6.99 µM)	15%

Source: ChEMBL document CHEMBL5143631, “nTZDpa (non-thiazolidinedione PPARγ partial agonist) derivatives retain antimicrobial activity without improving renal toxicity” (Bioorg Med Chem Lett, 2022)
